Values of other authors in patent US20210386367A1, “DEVICES AND SYSTEMS FOR GASTROINTESTINAL MICROBIOME DETECTION AND MANIPULATION” (Progenity, Inc., priority 2018, published 2021).
≈ marks a conversion by molar mass, not a printed value. Like-named read-outs stand apart in the source and are kept apart here.

Tests used:
Conditions in all cases: cited from earlier work
Prevotella bivia = tested on: Prevotella bivia
Enterobacter spp. [1] = tested on: Enterobacter spp.
Escherichia coli [2] = tested on: Escherichia coli
MDR Enterobacteriaceae = tested on: MDR Enterobacteriaceae
Enterobacteriaceae = tested on: Enterobacteriaceae
[3] = tested on: E. coli ATCC 35218 (TEM-1 β-lactamase producer)
Klebsiella pneumoniae [4] = tested on: Klebsiella pneumoniae
Prevotella melanogenica = tested on: Prevotella melanogenica
Haemophilus influenzae = tested on: Haemophilus influenzae
[5] = tested on: Bacteroides thetaiotaomicron
Veillonella = tested on: Veillonella
Lactobacillus spp. = tested on: Lactobacillus spp.
Bacteroides spp. = tested on: Bacteroides spp.
Bacteroides fragilis [6] = tested on: Bacteroides fragilis
Streptococcus agalactiae = tested on: Streptococcus agalactiae
Prevotella spp. = tested on: Prevotella spp.
Fusobacterium nucleatum = tested on: Fusobacterium nucleatum
[7] = tested on: Bacteroides thetaiotaomicron; remark: listed apart in the source
Fusobacterium spp [8] = tested on: Fusobacterium spp
Klebsiella pneumoniae [9] = tested on: Klebsiella pneumoniae; remark: listed apart in the source
Veillonella spp = tested on: Veillonella spp
Bacteroides vulgatus = tested on: Bacteroides vulgatus
[10] = tested on: Bacteroides thetaiotaomicron; remark: listed apart in the source
Staphylococci = tested on: Staphylococci
Enterococcus spp. = tested on: Enterococcus spp.
Fusobacterium spp [11] = tested on: Fusobacterium spp; remark: listed apart in the source
Escherichia coli [12] = tested on: Escherichia coli; remark: listed apart in the source
Escherichia coli [13] = tested on: Escherichia coli; remark: listed apart in the source
Bacteroides fragilis [14] = tested on: Bacteroides fragilis; remark: listed apart in the source
Enterococcus faecalis = tested on: Enterococcus faecalis
Enterobacter spp. [15] = tested on: Enterobacter spp.; remark: listed apart in the source

C[C@@H](O)[C@H]1C(=O)N2C(C(=O)O)=C(S[C@@H]3CN[C@H](C(=O)N(C)C)C3)[C@H](C)[C@H]12 [meropenem]
% S (Prevotella bivia): 100%
MIC50 (Prevotella bivia): 0.03 mg/L (≈ 0.0782 µM)
MIC90 (Prevotella bivia): ≤0.03 mg/L
MIC range (Prevotella bivia): ≤0.03 to 0.06 mg/L
% S (Enterobacter spp. [1]): 57.5%
MIC50 (Enterobacter spp. [1]): 0.5 mg/L (≈ 1.3 µM)
MIC90 (Enterobacter spp. [1]): 64 mg/L (≈ 167 µM)
% S (Escherichia coli [2]): 83.1%
MIC50 (Escherichia coli [2]): ≤0.06 mg/L
MIC90 (Escherichia coli [2]): 32 mg/L (≈ 83.4 µM)
% S (MDR Enterobacteriaceae): 75%
MIC50 (MDR Enterobacteriaceae): ≤0.12 mg/L
MIC90 (MDR Enterobacteriaceae): >8 mg/L
% S (Enterobacteriaceae): 97.2%
MIC50 (Enterobacteriaceae): 0.03 mg/L (≈ 0.0782 µM)
MIC90 (Enterobacteriaceae): 0.12 mg/L (≈ 0.313 µM)
CLSI QC range (MIC) [3]: (0.008-0.06) μg/mL
% S (Klebsiella pneumoniae [4]): 38.3%
MIC50 (Klebsiella pneumoniae [4]): 8 mg/L (≈ 20.9 µM)
MIC90 (Klebsiella pneumoniae [4]): 64 mg/L (≈ 167 µM)
% S (Prevotella melanogenica): 100%
MIC50 (Prevotella melanogenica): 0.06 mg/L (≈ 0.156 µM)
MIC90 (Prevotella melanogenica): 0.25 mg/L (≈ 0.652 µM)
MIC range (Prevotella melanogenica): ≤0.03 to 0.25 mg/L
MIC50 (Haemophilus influenzae): ≤0.125 mg/L
MIC90 (Haemophilus influenzae): 0.5 mg/L (≈ 1.3 µM)
% S [5]: 100%
MIC50 [5]: 0.25 mg/L (≈ 0.652 µM)
MIC90 [5]: 0.5 mg/L (≈ 1.3 µM)
% S (Veillonella): 100%
MIC50 (Veillonella): ≤0.03 mg/L
MIC90 (Veillonella): ≤0.03 mg/L
MIC range (Veillonella): ≤0.03 to 0.25 mg/L

CO/N=C(\C(=O)N[C@@H]1C(=O)N2C(C(=O)O)=C(CSc3nc(=O)c(=O)[nH]n3C)CS[C@H]12)c1csc(N)n1 [ceftriaxone]
MIC50 (Lactobacillus spp.): 4 mg/L (≈ 7.21 µM)
MIC90 (Lactobacillus spp.): 8 mg/L (≈ 14.4 µM)
MIC range (Lactobacillus spp.): 0.12 to 64 mg/L
MIC50 (Bacteroides spp.): >128 mg/L
MIC90 (Bacteroides spp.): >128 mg/L
% S (Bacteroides fragilis [6]): 15%
MIC50 (Bacteroides fragilis [6]): 32 mg/L (≈ 57.7 µM)
MIC90 (Bacteroides fragilis [6]): >32 mg/L
MIC50 (Streptococcus agalactiae): 0.025 mg/L (≈ 0.0451 µM)
MIC90 (Streptococcus agalactiae): 0.1 mg/L (≈ 0.18 µM)
MIC range (Streptococcus agalactiae): 0.012 to 0.1 mg/L
% S (Prevotella spp.): 90%
MIC50 (Prevotella spp.): 1 mg/L (≈ 1.8 µM)
MIC90 (Prevotella spp.): 8 mg/L (≈ 14.4 µM)
MIC range (Prevotella spp.): ≤0.008 to 64 mg/L
% S (Fusobacterium nucleatum): 100%
MIC50 (Fusobacterium nucleatum): 0.125 mg/L (≈ 0.225 µM)
MIC90 (Fusobacterium nucleatum): 0.5 mg/L (≈ 0.902 µM)
MIC range (Fusobacterium nucleatum): 0.015 to 1 mg/L
% S [7]: 2%
MIC50 [7]: 32 mg/L (≈ 57.7 µM)
MIC90 [7]: >32 mg/L
% S (Fusobacterium spp [8]): 87%
MIC50 (Fusobacterium spp [8]): 0.5 mg/L (≈ 0.902 µM)
MIC90 (Fusobacterium spp [8]): 32 mg/L (≈ 57.7 µM)
% S (Klebsiella pneumoniae [9]): 67%
MIC50 (Klebsiella pneumoniae [9]): ≤0.25 mg/L
MIC90 (Klebsiella pneumoniae [9]): >64 mg/L
% S (Veillonella spp): 79%
MIC50 (Veillonella spp): 4 mg/L (≈ 7.21 µM)
MIC90 (Veillonella spp): 8 mg/L (≈ 14.4 µM)
MIC range (Veillonella spp): 0.03 to 8 mg/L

CO[C@H]1/C=C/O[C@@]2(C)Oc3c(C)c(O)c4c(O)c(c5c(nc6cc(C)ccn65)c4c3C2=O)NC(=O)/C(C)=C\C=C\[C@H](C)[C@H](O)[C@@H](C)[C@@H](O)[C@@H](C)[C@H](OC(C)=O)[C@@H]1C [rifaximin]
MIC50 (Bacteroides vulgatus): 0.25 mg/L (≈ 0.318 µM)
MIC90 (Bacteroides vulgatus): 0.5 mg/L (≈ 0.636 µM)
MIC range (Bacteroides vulgatus): 0.25 to 4 mg/L
MIC50 [10]: 1 mg/L (≈ 1.27 µM)
MIC90 [10]: >1024 mg/L
MIC50 (Staphylococci): ≤0.06 mg/L
MIC90 (Staphylococci): 64 mg/L (≈ 81.4 µM)
MIC range (Staphylococci): ≤0.06 to 64 mg/L
MIC50 (Enterococcus spp.): 4 mg/L (≈ 5.09 µM)
MIC90 (Enterococcus spp.): 32 mg/L (≈ 40.7 µM)
MIC range (Enterococcus spp.): ≤0.06 to 32 mg/L
MIC50 (Fusobacterium spp [11]): 8 mg/L (≈ 10.2 µM)
MIC90 (Fusobacterium spp [11]): >1024 mg/L
% S (Escherichia coli [12]): 85.4%
MIC50 (Escherichia coli [12]): 16 mg/L (≈ 20.4 µM)
MIC90 (Escherichia coli [12]): 64 mg/L (≈ 81.4 µM)
MIC range (Escherichia coli [12]): 4 to 64 mg/L
MIC50 (Escherichia coli [13]): 32 mg/L (≈ 40.7 µM)
MIC90 (Escherichia coli [13]): 128 mg/L (≈ 163 µM)
MIC50 (Bacteroides fragilis [14]): 0.25 mg/L (≈ 0.318 µM)
MIC90 (Bacteroides fragilis [14]): >1024 mg/L
% S (Enterococcus faecalis): 100%
MIC50 (Enterococcus faecalis): 4 mg/L (≈ 5.09 µM)
MIC90 (Enterococcus faecalis): 16 mg/L (≈ 20.4 µM)
MIC range (Enterococcus faecalis): ≤0.25 to 16 mg/L
% S (Enterobacter spp. [15]): 34.8%
MIC50 (Enterobacter spp. [15]): 64 mg/L (≈ 81.4 µM)
MIC90 (Enterobacter spp. [15]): 128 mg/L (≈ 163 µM)
MIC range (Enterobacter spp. [15]): 32 to 128 mg/L
